Patent publication US20140263071A1, “METHOD FOR COLLECTING METALS” (CHEMEC OY AB, priority 2011, published 2014)
Marks after values point to notes of the source that are not given here.

Experiments:
[1] = Effect of contact time on expulsion percent, Pb^2+ and Hg^2+ spiked TS 5, 1a 100 mg/100 ml (Example 13)
Protocol: (§1) A test solution containing 1-15 mg/l of Al^3+, Fe^2/3+, Mg^2+, Mn^2+, Ni^2+ and Zn^2+; 0.1-0.9 mg/l of Ca^2+ and Na^+; and trace amount of other Cr^3+, Co^2+, Cu^2+, Eu^3+, La^3+, Nd^3+, Y^3+, UO2^2+ and Nb^5+ cations were prepared.
Effect of contact time to selected metal expulsion per cents was tested using TS 5 with comlexation agent 1a. TS 5 (100 ml), spiked with known amounts of lead (Pb^2+) and mercury (Hg^2+) cations, was stirred with 1a (100 mg) for selected times followed by separation of 1a by filtration trough 0.2 μm syringe filter. Metal concentrations after 5 min, 15 min, 30 min, 1 h, 2 h, 3.5 h, 6.5 h and 29.5 h were determined by using ICP-AES analysis.

[2] = Simultaneous collection of Ni^2+, Zn^2+, Eu^3+, La^3+, Nd^3+, Y^3+, UO2^2+, Nb^5+ and Zr^4+ from TS 5 (Example 22); settings: TS 5, 1a 1 g/100 ml, 24 h
Protocol: as §1
TS 5 (100 ml) was stirred with 1a (1 g) at room temperature for 24 h. After filtration trough 0.2 μm syringe filter metal concentration of Ni^2+, Zn^2+, Eu^3+, La^3+, Nd^3+, Y^3+, UO2^2+, Nb^5+ and Zr^4+ were determined by using ICP-AES and ICP-MS methods. The expulsions percent was calculated for each element from the concentration difference between initial and final solutions and the experimental results are given in Table 16.

[3] = Purification of water draining through the dump site, TS 1 (Example 16); settings: Mo^2+
[4] = Collection of gold from TS 5 (Example 21); settings: Au^3+ spiked TS 5, pH 3.0, 1a 5 g
Protocol: as §1
TS 5 (100 ml) was spiked with Au^3+ (87.7 mg/ml) Merch Titrisol® standard solution. After pH of the mixture was adjusted to 3.0 by HNO3 sample A was taken followed by adding 1a (5 g). The mixture was stirred at room temperature for 24 h and a sample B was taken. Samples A and B were filtrated separately trough 0.2 μm syringe filter and the concentration of selected element in both solution was determined by using ICP-AES method. The expulsion percent for selected elements were determined from the concentration differences between the samples A and B. Results of gold recovery from TS 5 is given in Table 15.

[5] = Recycling and regeneration of solid bisphosphonate material (Example 27); settings: 1a 700 mg
Protocol: Compound 1a (700 mg) was weighed on sintered disc (porosity G-4) and aqueous CuCl2x2 H2O (20 ml) solution containing ca. 47 700 ppm of copper was passed slowly through the powder under vacuum. […] After the sintered disc was dry, aqueous HCl (25 ml, 2M) was passed slowly through the sintered disc. During this regeneration process solid bisphoshonate material on sintered disc turned from blue to white and filtered HCl solution was pale blue. The same procedure using the original 1a powder on sintered disc and a fresh CuCl2x2 H2O (20 ml) solution was repeated 20 times. The copper concentrations measured by AAS of the filtered HCl solution was 2294 ppm, 859 ppm and 713 ppm after first, 10th and 20th regeneration cycle, respectively. The amount of 1a after the last regeneration step was 630 mg (90% of the original amount).

NCCCCCCCCCCC(O)(P(=O)(O)O)P(=O)(O)O [Compound 1a, 11-Amino-1-hydroxyundecane-1,1-diyldiphosphonic acid]
Expulsion [%] ([1]; Al^3+, 5 min): 8.3% | Expulsion [%] ([1]; Al^3+, 15 min): 5.5% | Expulsion [%] ([1]; Al^3+, 30 min): 7.1% | Expulsion [%] ([1]; Al^3+, 60 min): 5.9% | Expulsion [%] ([1]; Al^3+, 120 min): 8.7% | Expulsion [%] ([1]; Al^3+, 210 min): 18.5% | Expulsion [%] ([1]; Al^3+, 390 min): 26.0% | Expulsion [%] ([1]; Al^3+, 1770 min): 27.2% | Expulsion [%] ([1]; Ca^2+, 5 min): 2.7% | Expulsion [%] ([1]; Ca^2+, 15 min): 0% | Expulsion [%] ([1]; Ca^2+, 30 min): 0% | Expulsion [%] ([1]; Ca^2+, 60 min): 0% | Expulsion [%] ([1]; Ca^2+, 120 min): 0% | Expulsion [%] ([1]; Ca^2+, 210 min): 0% | Expulsion [%] ([1]; Ca^2+, 390 min): 9.8% | Expulsion [%] ([1]; Ca^2+, 1770 min): 18.7% | Expulsion [%] ([1]; Cd^2+, 5 min): 2.9% | Expulsion [%] ([1]; Cd^2+, 15 min): 3.9% | Expulsion [%] ([1]; Cd^2+, 30 min): 5.1% | Expulsion [%] ([1]; Cd^2+, 60 min): 7.5% | Expulsion [%] ([1]; Cd^2+, 120 min): 10.9% | Expulsion [%] ([1]; Cd^2+, 210 min): 15.0% | Expulsion [%] ([1]; Cd^2+, 390 min): 28.1% | Expulsion [%] ([1]; Cd^2+, 1770 min): 36.6% | Expulsion [%] ([1]; Fe^2/3+, 5 min): 0% | Expulsion [%] ([1]; Fe^2/3+, 15 min): 0.7% | Expulsion [%] ([1]; Fe^2/3+, 30 min): 0% | Expulsion [%] ([1]; Fe^2/3+, 60 min): 3.0% | Expulsion [%] ([1]; Fe^2/3+, 120 min): 6.7% | Expulsion [%] ([1]; Fe^2/3+, 210 min): 8.9% | Expulsion [%] ([1]; Fe^2/3+, 390 min): 20.7% | Expulsion [%] ([1]; Fe^2/3+, 1770 min): 19.3% | Expulsion [%] ([1]; Hg^2+, 5 min): 59.9% | Expulsion [%] ([1]; Hg^2+, 15 min): 60.4% | Expulsion [%] ([1]; Hg^2+, 30 min): 58.5% | Expulsion [%] ([1]; Hg^2+, 60 min): 56.4% | Expulsion [%] ([1]; Hg^2+, 120 min): 57.1% | Expulsion [%] ([1]; Hg^2+, 210 min): 55.7% | Expulsion [%] ([1]; Hg^2+, 390 min): 57.0% | Expulsion [%] ([1]; Hg^2+, 1770 min): 49.6% | Expulsion [%] ([1]; Mg^2+, 5 min): 1.4% | Expulsion [%] ([1]; Mg^2+, 15 min): 1.8% | Expulsion [%] ([1]; Mg^2+, 30 min): 0.2% | Expulsion [%] ([1]; Mg^2+, 60 min): 4.4% | Expulsion [%] ([1]; Mg^2+, 120 min): 5.8% | Expulsion [%] ([1]; Mg^2+, 210 min): 6.9% | Expulsion [%] ([1]; Mg^2+, 390 min): 16.4% | Expulsion [%] ([1]; Mg^2+, 1770 min): 19.8% | Expulsion [%] ([1]; Mn^2+, 5 min): 3.4% | Expulsion [%] ([1]; Mn^2+, 15 min): 4.3% | Expulsion [%] ([1]; Mn^2+, 30 min): 4.3% | Expulsion [%] ([1]; Mn^2+, 60 min): 6.3% | Expulsion [%] ([1]; Mn^2+, 120 min): 10.5% | Expulsion [%] ([1]; Mn^2+, 210 min): 13.1% | Expulsion [%] ([1]; Mn^2+, 390 min): 27.0% | Expulsion [%] ([1]; Mn^2+, 1770 min): 29.1% | Expulsion [%] ([1]; Ni^2+, 5 min): 1.4% | Expulsion [%] ([1]; Ni^2+, 15 min): 1.8% | Expulsion [%] ([1]; Ni^2+, 30 min): 1.4% | Expulsion [%] ([1]; Ni^2+, 60 min): 4.1% | Expulsion [%] ([1]; Ni^2+, 120 min): 5.0% | Expulsion [%] ([1]; Ni^2+, 210 min): 7.8% | Expulsion [%] ([1]; Ni^2+, 390 min): 13.2% | Expulsion [%] ([1]; Ni^2+, 1770 min): 15.5% | Expulsion [%] ([1]; Pb^2+, 5 min): 28.5% | Expulsion [%] ([1]; Pb^2+, 15 min): 34.7% | Expulsion [%] ([1]; Pb^2+, 30 min): 56.3% | Expulsion [%] ([1]; Pb^2+, 60 min): 49.4% | Expulsion [%] ([1]; Pb^2+, 120 min): 65.7% | Expulsion [%] ([1]; Pb^2+, 210 min): 89.8% | Expulsion [%] ([1]; Pb^2+, 390 min): 94.6% | Expulsion [%] ([1]; Pb^2+, 1770 min): 98.1% | Expulsion [%] ([1]; Zn^2+, 5 min): 2.5% | Expulsion [%] ([1]; Zn^2+, 15 min): 3.7% | Expulsion [%] ([1]; Zn^2+, 30 min): 4.9% | Expulsion [%] ([1]; Zn^2+, 60 min): 6.5% | Expulsion [%] ([1]; Zn^2+, 120 min): 9.8% | Expulsion [%] ([1]; Zn^2+, 210 min): 13.9% | Expulsion [%] ([1]; Zn^2+, 390 min): 27.1% | Expulsion [%] ([1]; Zn^2+, 1770 min): 30.8% | Expulsion [%] ([2]; Eu^3+): 98% | Expulsion [%] ([2]; La^3+): 100% | Expulsion [%] ([2]; Nb^5+): 100% | Expulsion [%] ([2]; Nd^3+): 100% | Expulsion [%] ([2]; Ni^2+): 72% | Expulsion [%] ([2]; UO2^2+): 100% | Expulsion [%] ([2]; Y^3+): 100% | Expulsion [%] ([2]; Zn^2+): 97% | Expulsion [%] ([2]; Zr^4+): 100% | Expulsion [%] ([3]; Spiked TS 1): ≥ 52^2) % | Expulsion [%] ([3]; TS 1): ≥ 58^2) % | Expulsion [%] ([4]; Al^3+): 87.9% | Expulsion [%] ([4]; Au^3+): 65.0^1) % | Expulsion [%] ([4]; Cr^3+): 2.6% | Expulsion [%] ([4]; Fe^2/3+): ≥ 96.6^2) % | Expulsion [%] ([4]; Mg^2+): 0% | Expulsion [%] ([4]; Mn^2+): 0% | Expulsion [%] ([4]; Ni^2+): 1.3% | Expulsion [%] ([4]; Zn^2+): 1.4% | copper concentration of the filtered HCl solution ([5]; after 10th regeneration cycle): 859 ppm | copper concentration of the filtered HCl solution ([5]; after 20th regeneration cycle): 713 ppm | copper concentration of the filtered HCl solution ([5]; after first regeneration cycle): 2294 ppm
